Laboratory results as given in patent publication US9856279B2 (AGIOS PHARMACEUTICALS, INC, priority 2011, dated 2018).

Assays:
U87MG cells = assay: Cellular assay for IDH1m inhibitors: inhibition of 2-HG production (LC-MS, 48 hours) in U87MG cells; type: cell-based; conditions: Homo sapiens, U-87 MG, inhibition of 2-HG production, U87R132H cells; read-out: U87R132H IC50
Description: Cells (e.g., HT1080 or U87MG) and are grown in T125 flasks in DMEM containing 10% FBS, 1× penicillin/streptomycin and 500 ug/mL G418. They are harvested by trypsin and seeded into 96 well white bottom plates at a density of 5000 cell/well in 100 ul/well in DMEM with 10% FBS. No cells are plates in columns 1 and 12. Cells are incubated overnight at 37° C. in 5% CO2. The next day compounds are made up at 2× concentration and 100 ul are added to each cell well. The final concentration of DMSO is 0.2% and the DMSO control wells are plated in row G. The plates are then placed in the incubator for 48 hours. At 48 hours, 100 μl of media is removed from each well and analyzed by LC-MS for 2-HG concentrations. The cell plate is placed back in the incubator for another 24 hours. At 72 hours post compound addition, 10 mL/plate of Promega Cell Titer Glo reagent is thawed and mixed. The cell plate is removed from the incubator and allowed to equilibrate to room temperature. Then 100 ul of reagent is added to each well of media. The cell plate is then placed on an orbital shaker for 10 minutes and then allowed to sit at room temperature for 20 minutes. The plate is then read for luminescence with an integration time of 500 ms.
The IC50 for inhibition of 2-HG production (concentration of test compound to reduce 2HG production by 50% compared to control) in these two cell lines for various compounds of formula I is set forth in Table 4 above.

HT1080 cells = assay: Cellular assay for IDH1m inhibitors: inhibition of 2-HG production (LC-MS, 48 hours) in HT1080 cells; type: cell-based; conditions: Homo sapiens, HT-1080; inhibition of 2-HG production, HT1080 cells; read-out: HT1080 IC50
How it was run: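 Read-out: 2-HG in culture medium by LC-MS after 48 h compound exposure; IC50 = 50% reduction vs DMSO control. Cells plated 5000/well in DMEM/10% FBS, 37 °C, 5% CO2; DMSO 0.2% final.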

IDH1 R132H = IDH1 R132H (Homo sapiens, UniProt O75874, R132H); assay: Assay for IDH1 R132H inhibitors (NADPH/aKG, resazurin detection); type: biochemical; conditions: enzyme assay of Example 12; read-out: IDH1R132H IC50
Sequence of IDH1 R132H (O75874 whole entry R132H): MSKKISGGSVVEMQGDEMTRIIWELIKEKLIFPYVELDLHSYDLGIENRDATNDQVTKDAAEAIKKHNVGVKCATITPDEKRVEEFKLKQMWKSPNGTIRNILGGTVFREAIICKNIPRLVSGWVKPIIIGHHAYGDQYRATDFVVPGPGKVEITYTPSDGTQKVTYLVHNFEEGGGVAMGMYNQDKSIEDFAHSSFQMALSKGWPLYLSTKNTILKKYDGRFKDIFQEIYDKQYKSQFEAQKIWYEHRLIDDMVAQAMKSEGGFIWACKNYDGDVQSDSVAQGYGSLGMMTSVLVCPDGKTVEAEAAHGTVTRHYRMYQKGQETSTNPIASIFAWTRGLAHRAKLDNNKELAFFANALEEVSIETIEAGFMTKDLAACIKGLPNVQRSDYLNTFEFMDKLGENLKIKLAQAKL
How it was run: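 Compound added to substrate mix (8 uM NADPH, 2 mM aKG), then enzyme mix (0.2 μg/ml IDH1 R132H); 50 min RT in 20 mM Tris pH 7.5, 150 mM NaCl, 10 mM MgCl2, 0.03% BSA. Resazurin detection mix (30 μM) 5 min RT; resorufin fluorescence Ex544/Em590.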

Row | SMILES | IC50 (U87MG cells) | IC50 (HT1080 cells) | IC50 (IDH1 R132H)
1 | COCCC(=O)N1CCN(c2nc(C3CC3)c(-c3ccc(OC(F)(F)F)cc3)c(C)c2C#N)C[C@H]1C [Compound 263, (R)-6-cyclopropyl-2-(4-(3-methoxypropanoyl)-3-methylpiperazin-1-yl)-4-methyl-5-(4-(trifluoromethoxy)phenyl)nicotinonitrile] | 1000 to 10000 nM | 500 to 1000 nM | < 500 nM
2 | COCCC(=O)N1CCN(c2nc(C3CC3)c(-c3ccc(F)cc3F)c(C)c2C#N)C[C@H]1C [Compound 264, 6-cyclopropyl-5-(2,4-difluorophenyl)-2-((R)-4-(3-methoxypropanoyl)-3-methylpiperazin-1-yl)-4-methylnicotinonitrile] | 1000 to 10000 nM | 1000 to 10000 nM | 500 to 1000 nM
3 | COCCC(=O)N1CCN(c2nc(C3CC3)c(-c3cccc(F)c3)c(C)c2C#N)C[C@H]1C [Compound 265, (R)-6-cyclopropyl-5-(3-fluorophenyl)-2-(4-(3-methoxypropanoyl)-3-methylpiperazin-1-yl)-4-methylnicotinonitrile] | 1000 to 10000 nM | 1000 to 10000 nM | < 500 nM
4 | COCCC(=O)N1CCN(c2nc(C3CC3)c(-c3ccc(C)c(F)c3)c(C)c2C#N)C[C@H]1C [Compound 266, (R)-6-cyclopropyl-5-(3-fluoro-4-methylphenyl)-2-(4-(3-methoxypropanoyl)-3-methylpiperazin-1-yl)-4-methylnicotinonitrile] | 1000 to 10000 nM | 1000 to 10000 nM | < 500 nM
5 | COCCC(=O)N1CCN(c2nc(C3CC3)c(-c3ccc4ccccc4c3)c(C)c2C#N)C[C@H]1C [Compound 267, (R)-6-cyclopropyl-2-(4-(3-methoxypropanoyl)-3-methylpiperazin-1-yl)-4-methyl-5-(naphthalen-2-yl)nicotinonitrile] | 1000 to 10000 nM | 1000 to 10000 nM | 500 to 1000 nM
6 | COCCC(=O)N1CCN(c2nc(C3CC3)c(-c3ccncc3)c(C)c2C#N)C[C@H]1C [Compound 268, (R)-2-cyclopropyl-6-(4-(3-methoxypropanoyl)-3-methylpiperazin-1-yl)-4-methyl-3,4′-bipyridine-5-carbonitrile] | 1000 to 10000 nM | 1000 to 10000 nM | 500 to 1000 nM
7 | COCCC(=O)N1CCN(c2nc(C3CC3)c(-c3ccc4c(c3)OCO4)c(C)c2C#N)C[C@H]1C [Compound 269, (R)-5-(benzo[d][1,3]dioxol-5-yl)-6-cyclopropyl-2-(4-(3-methoxypropanoyl)-3-methylpiperazin-1-yl)-4-methylnicotinonitrile] | 1000 to 10000 nM | 1000 to 10000 nM | < 500 nM
8 | COCCC(=O)N1CCN(c2nc(C3CC3)c(-c3ccsc3)c(C)c2C#N)C[C@H]1C [Compound 270, (R)-6-cyclopropyl-2-(4-(3-methoxypropanoyl)-3-methylpiperazin-1-yl)-4-methyl-5-(thiophen-3-yl)nicotinonitrile] | 1000 to 10000 nM | 1000 to 10000 nM | 500 to 1000 nM
9 | COCCC(=O)N1CCN(c2nc(C3CC3)c(-c3ccc(F)c(Cl)c3)c(C)c2C#N)C[C@H]1C [Compound 271, (R)-5-(3-chloro-4-fluorophenyl)-6-cyclopropyl-2-(4-(3-methoxypropanoyl)-3-methylpiperazin-1-yl)-4-methylnicotinonitrile] | 1000 to 10000 nM | 1000 to 10000 nM | < 500 nM
10 | COCCC(=O)N1CCN(c2nc(C(C)C)c(OCCNC(=O)OCc3ccccc3)cc2C#N)C[C@H]1C [Compound 272, (R)-benzyl 2-(5-cyano-2-isopropyl-6-(4-(3-methoxypropanoyl)-3-methylpiperazin-1-yl)pyridin-3-yloxy)ethylcarbamate] | 1000 to 10000 nM | 1000 to 10000 nM | 500 to 1000 nM
11 | COCCC(=O)N1CCN(c2nc(C3CC3)c(-c3ccccc3C#N)cc2C#N)C[C@H]1C(C)C [Compound 274, (R)-5-(2-cyanophenyl)-6-cyclopropyl-2-(3-isopropyl-4-(3-methoxypropanoyl)piperazin-1-yl)nicotinonitrile] | 1000 to 10000 nM | 1000 to 10000 nM | 500 to 1000 nM
12 | CCO[C@H]1C[C@@H]1C(=O)N1CCN(c2nc(C3CC3)c(-c3cccc4cnccc34)cc2C#N)C[C@H]1C1CC1 [Compound 518, 6-cyclopropyl-2-((R)-3-cyclopropyl-4-((1S,2S)-2-ethoxycyclopropanecarbonyl)piperazin-1-yl)-5-(isoquinolin-5-yl)nicotinonitrile] | < 500 nM |  | < 500 nM
13 | C=Cc1ncc2c(-c3cc(C#N)c(N4CCN(C(=O)CCO)[C@H](C(C)C)C4)nc3C3CC3)cccc2n1 [Compound 650, (R)-6-cyclopropyl-2-(4-(3-hydroxypropanoyl)-3-isopropylpiperazin-1-yl)-5-(2-vinylquinazolin-5-yl)nicotinonitrile] | < 500 nM |  | < 500 nM
14 | C=Cc1ncc2c(-c3cc(C#N)c(N4CCN(C(=O)CCO)[C@H](C5CC5)C4)nc3C3CC3)cccc2n1 [Compound 651, (R)-6-cyclopropyl-2-(3-cyclopropyl-4-(3-hydroxypropanoyl)piperazin-1-yl)-5-(2-vinylquinazolin-5-yl)nicotinonitrile] | < 500 nM |  | < 500 nM
15 | C=Cc1cc(-c2cc(C#N)c(N3CCN(C(=O)CCOC)[C@H](C4CC4)C3)nc2C2CC2)c2ccncc2n1 [Compound 658, (R)-6-cyclopropyl-2-(3-cyclopropyl-4-(3-methoxypropanoyl)piperazin-1-yl)-5-(2-vinyl-1,7-naphthyridin-4-yl)nicotinonitrile] | < 500 nM |  | < 500 nM
16 | N#Cc1cc(-c2cnnc(OS(=O)(=O)C(F)(F)F)c2)c(C2CC2)nc1N1CCN(C(=O)C2CC2)[C@H](C2CC2)C1 [Compound 687, (R)-5-(5-cyano-6-(4-(cyclopropanecarbonyl)-3-cyclopropylpiperazin-1-yl)-2-cyclopropylpyridin-3-yl)pyridazin-3-yl trifluoromethanesulfonate] | 500 to 1000 nM |  | < 500 nM
17 | C=Cc1cc(-c2cc(C#N)c(N3CCN(C(=O)C4CC4)[C@H](C4CC4)C3)nc2C2CC2)nc(N)n1 [Compound 700, (R)-5-(2-amino-6-vinylpyrimidin-4-yl)-2-(4-(cyclopropanecarbonyl)-3-cyclopropylpiperazin-1-yl)-6-cyclopropylnicotinonitrile] | < 500 nM | < 500 nM | 
18 | N#Cc1cc(Cc2ccnc(Cl)c2)c(C2CC2)nc1N1CCN(C(=O)CCO)[C@H](C2CC2)C1 [Compound 708, (R)-5-((2-chloropyridin-4-yl)methyl)-6-cyclopropyl-2-(3-cyclopropyl-4-(3-hydroxypropanoyl)piperazin-1-yl)nicotinonitrile] | 1000 to 10000 nM |  | < 500 nM
19 | C=Cc1ccnc(Nc2cc(C#N)c(N3CCN(C(=O)CCO)[C@H](C(C)C)C3)nc2C2CC2)c1 [Compound 757, (R)-6-cyclopropyl-2-(4-(3-hydroxypropanoyl)-3-isopropylpiperazin-1-yl)-5-((4-vinylpyridin-2-yl)amino)nicotinonitrile] | < 500 nM |  | < 500 nM
20 | C=Cc1ccnc(Nc2cc(C#N)c(N3CCN(C(=O)CCOC)[C@H](C(C)C)C3)nc2C2CC2)c1 [Compound 758, (R)-6-cyclopropyl-2-(3-isopropyl-4-(3-methoxypropanoyl)piperazin-1-yl)-5-((4-vinylpyridin-2-yl)amino)nicotinonitrile] | < 500 nM |  | < 500 nM
21 | C=Cc1cc(-c2cc(C#N)c(N3CCN(C(=O)COC)[C@H](C4CC4)C3)nc2C2CC2)nc(N)n1 [Compound 759, (R)-5-(2-amino-6-vinylpyrimidin-4-yl)-6-cyclopropyl-2-(3-cyclopropyl-4-(2-methoxyacetyl)piperazin-1-yl)nicotinonitrile] | < 500 nM |  | < 500 nM
22 | C=Cc1cc(-c2c(C3CC3)nc(N3CCN(C(=O)CCO)[C@H](C(C)C)C3)c(C#N)c2C)cnn1 [Compound 773, (R)-6-cyclopropyl-2-(4-(3-hydroxypropanoyl)-3-isopropylpiperazin-1-yl)-4-methyl-5-(6-vinylpyridazin-4-yl)nicotinonitrile] | < 500 nM |  | < 500 nM
23 | N#Cc1cc(Nc2cc(C#N)c(N3CCN(C(=O)C[C@H]4CCO4)[C@H](C4CC4)C3)nc2C2CC2)ccn1 [Compound 783, 4-(5-cyano-2-cyclopropyl-6-((R)-3-cyclopropyl-4-(2-((R)-oxetan-2-yl)acetyl)piperazin-1-yl)pyridin-3-ylamino)picolinonitrile] | < 500 nM | < 500 nM | 
